Measured values from patent US5672710A, “Sulfides, sulfoxides and sulfones disubstituted with a tetrahydronaphthalenyl, chromanyl, thiochromanyl or tetrahydroquinolinyl and substituted phenyl or heteroaryl group, having retinoid-like biological activity” (priority 1995, dated 1997).

Target: T1, RXRβ (Mus musculus, UniProt P28704)
T1 construct: expressed in transfected cells; host or cells: CV1
T1 sequence (P28704 1-520): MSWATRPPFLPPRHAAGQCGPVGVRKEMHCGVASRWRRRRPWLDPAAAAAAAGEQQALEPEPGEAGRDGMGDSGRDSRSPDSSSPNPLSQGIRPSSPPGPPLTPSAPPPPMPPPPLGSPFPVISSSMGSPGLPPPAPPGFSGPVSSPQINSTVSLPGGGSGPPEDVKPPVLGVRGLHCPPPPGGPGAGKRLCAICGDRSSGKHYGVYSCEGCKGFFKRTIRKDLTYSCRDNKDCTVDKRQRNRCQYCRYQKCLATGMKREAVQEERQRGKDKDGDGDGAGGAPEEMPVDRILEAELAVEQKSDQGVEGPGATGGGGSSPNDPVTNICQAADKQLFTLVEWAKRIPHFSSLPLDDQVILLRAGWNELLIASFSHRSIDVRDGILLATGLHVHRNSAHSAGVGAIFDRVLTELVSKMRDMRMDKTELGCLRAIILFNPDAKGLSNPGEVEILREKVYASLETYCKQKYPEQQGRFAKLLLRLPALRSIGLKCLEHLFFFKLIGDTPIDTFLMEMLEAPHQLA
Experiment: Holoreceptor transactivation assay, RXRβ
Assay type: cell-based
Conditions: CV1 cells; for EC50: 36 hours; for Emax: CV-1, relative to all trans retinoic acid, read-out: Transactivation Assay Efficacy (% of RA activity), RXRβ
From the text: A holoreceptor transactivation assay and a ligand binding assay which measure the ability of the compounds of the invention to bind to the several retinoid receptor subtypes, respectively, are described in published PCT Application No. WO W093/11755 (particularly on pages 30-33 and 37-41) published on Jun. 24, 1993, the specification of which is also incorporated herein by reference. A description of the holoreceptor transactivation assay is also provided below.
CV1 cells (5,000 cells/well) were transfected with an RAR reporter plasmid MTV-TREp-LUC (50 ng) along with one of the […] expression vectors (10 ng) in an automated 96-well format by the calcium phosphate procedure of Heyman et al. Cell 68, 397-406. (8). For RXRα and RXR.GAMMA. transactivation assays, an RXR-responsive reporter plasmid CRBPII-tk-LUC (50 ng) along with the appropriate RXRexpression vectors (10 ng) was used substantially as described by Heyman et al. above, and Allegretto et al. J. Biol. Chem. 268, 26625-26633. For RXRβ transactivation assays, an RXR-responsive reporter plasmid CPRE-tk-LUC ([…]) along with RXRβ expression vector ([…]) was used as described in above. These reporters contain DRI elements from human CRBPII and certain DRI elements from promoter, respectively. (see Mangelsdorf et al. The Retinoids: Biology, Chemistry and Medicine, pp 319-349, Raven Press Ltd., New York and Heyman et al., cited above) (1, 8). A β-galactosidase (50 ng) expression vector was used as an internal control in the transfections to normalize for variations in transfection efficiency. The cells were transfected in triplicate for 6 hours, followed by incubation with retinoids for 36 hours, and the extracts were assayed for luciferase and β-galactosidase activities. The detailed experimental procedure for holoreceptor transactivations has been described in Heyman et al. above, and Allegretto et al. cited above. The results obtained in this assay in connection with examplary compounds in accordance with the present invention are expressed in EC50 numbers, as they are also in the chimeric receptor transactivation assay. The Heyman et al. Cell 68, 397-406, Allegretto et al. J. Biol. Chem. 268, 26625-26633, and Mangelsdorf et al. The Retinoids: Biology, Chemistry and Medicine, pp 319-349, Raven Press Ltd., New York, are expressly incorporated herein by reference. The results of ligand binding assay are expressed in Kd numbers. (See Cheng et al. Biochemical Pharmacology Vol. 22 pp 3099-3108, expressly incorporated herein by reference.)

| Compound | EC50 [µM] | Emax [%] |
| --- | --- | --- |
| CC1(C)CCC(C)(C)c2cc(Sc3ccc(C(=O)O)cc3)ccc21 [Compound 2] | 1.6 | 80 |
| CC1(C)CCC(C)(C)c2cc(S(=O)(=O)c3ccc(C(=O)O)cc3)ccc21 [Compound 5, 4-(5,6,7,8-tetrahydro-5,5,8,8-tetramethyl-2-naphthylsulfonyl)benzoic acid] | – | 11 |
| Cc1cc2c(cc1Sc1ccc(C(=O)O)cc1)C(C)(C)CCC2(C)C [Compound 7, 4-(5,6,7,8-tetrahydro-3,5,5,8,8-pentamethyl-2-Daphthylthio)benzoic acid] | 0.32 | 114 |

Results, then the compound that gave them:

| EC50 [µM] | Emax [%] | Compound |
| --- | --- | --- |
| 3 | 29 | Cc1cc2c(cc1[S+]([O-])c1ccc(C(=O)O)cc1)C(C)(C)CCC2(C)C (stereo not drawn) [Compound 9, 4-(5,6,7,8-tetrahydro-3,5,5,8,8-pentamethyl-2-naphthylsulfoxy)benzoic acid] |
| 1.3 | 117 | Cc1cc2c(cc1Sc1ncc(C(=O)O)s1)C(C)(C)CCC2(C)C [Compound 15, 2-(5,6,7,8-Tetrahydro-3,5,5,8,8-pentamethyl-2-naphthylthio)-5-thiazolecarboxylic acid] |
